Values quoted from earlier work in patent publication US8187607B2, “Hapten-carrier conjugates and uses thereof” (Cytos Biotechnology AG, priority 2002, dated 2012).

System: cigarette smokers
Conditions: at 12 months

**Q.** For `CC(NC(C)(C)C)C(=O)c1cccc(Cl)c1` (stereo not shown) [bupropion], which Abstinence rates is on record?
**A.** The Abstinence rates was “about 30%”.
